Data as given in PubChem BioAssay (NCI).
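Five concentrations, 48 hours, 96-well plates. GI50 = concentration required for 50% inhibition of growth. TGI is the concentration that stops growth completely.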

Tests used:
Experiment in all cases: NCI tumour cell line growth inhibition, 48 h
[1] = tested on: 786-0 renal
[2] = tested on: A498 renal
[3] = tested on: A549 NSCLC
[4] = tested on: ACHN renal
[5] = tested on: BT-549 breast
[6] = tested on: CAKI-1 renal
[7] = tested on: CCRF-CEM leukemia
[8] = tested on: COLO 205 colon
[9] = tested on: DU-145 prostate
[10] = tested on: EKVX NSCLC
[11] = tested on: HCC-2998 colon
[12] = tested on: HCT-116 colon
[13] = tested on: HCT-15 colon
[14] = tested on: HL-60(TB) leukemia
[15] = tested on: HOP-62 NSCLC
[16] = tested on: HOP-92 NSCLC
[17] = tested on: HS 578T breast
[18] = tested on: HT29 colon
[19] = tested on: IGROV1 ovarian
[20] = tested on: K-562 leukemia
[21] = tested on: KM12 colon
[22] = tested on: LOX IMVI melanoma
[23] = tested on: M14 melanoma
[24] = tested on: MALME-3M melanoma
[25] = tested on: MCF7 breast
[26] = tested on: MDA-MB-231 breast
[27] = tested on: MDA-MB-435
[28] = tested on: MOLT-4 leukemia
[29] = tested on: NCI-H226 lung
[30] = tested on: NCI-H23 lung
[31] = tested on: NCI-H460 lung
[32] = tested on: NCI-H522 lung
[33] = tested on: NCI/ADR-RES ovarian
[34] = tested on: OVCAR-3 ovarian
[35] = tested on: OVCAR-4 ovarian
[36] = tested on: OVCAR-5 ovarian
[37] = tested on: OVCAR-8 ovarian
[38] = tested on: PC-3 prostate
[39] = tested on: RPMI-8226 leukemia
[40] = tested on: RXF 393 renal
[41] = tested on: SF-268 CNS
[42] = tested on: SF-295 CNS
[43] = tested on: SF-539 CNS
[44] = tested on: SK-MEL-2 melanoma
[45] = tested on: SK-MEL-28 melanoma
[46] = tested on: SK-MEL-5 melanoma
[47] = tested on: SK-OV-3 ovarian
[48] = tested on: SN12C renal
[49] = tested on: SNB-19 CNS
[50] = tested on: SNB-75 CNS
[51] = tested on: SR leukemia
[52] = tested on: SW-620 colon
[53] = tested on: T-47D breast
[54] = tested on: TK-10 renal
[55] = tested on: U251 CNS
[56] = tested on: UACC-257 melanoma
[57] = tested on: UACC-62 melanoma
[58] = tested on: UO-31 renal

`C[C@@H]1CC[C@@]2(OC1)O[C@H]1C[C@H]3[C@@H]4CC=C5C[C@@H](O[C@@H]6O[C@H](CO)[C@@H](O[C@@H]7O[C@@H](CO)[C@H](O)[C@H]7O)[C@H](O)[C@H]6O[C@@H]6O[C@@H](C)[C@H](O)[C@@H](O)[C@H]6O)CC[C@]5(C)[C@H]4CC[C@]3(C)[C@H]1[C@@H]2C` showed a GI50 [1] of 1370 nM, a TGI [1] of 2680 nM and a GI50 [2] of 1280 nM. It also gave a TGI [2] of 2550 nM, a TGI [3] of 2040 nM and a TGI [4] of 2120 nM. It also gave a GI50 [5] of 1500 nM, a TGI [5] of 2940 nM and a TGI [6] of 2050 nM. It also gave a GI50 [7] of 1100 nM, a TGI [7] of 2600 nM and a GI50 [8] of 966 nM. It also gave a TGI [8] of 2170 nM, a GI50 [9] of 1170 nM and a TGI [9] of 2400 nM. For the same compound, the GI50 [10] was 1620 nM, the TGI [10] was 3040 nM and the GI50 [11] was 1710 nM. It also gave a TGI [11] of 3100 nM, a TGI [12] of 2090 nM and a GI50 [13] of 1120 nM. It also gave a TGI [13] of 2460 nM, a GI50 [14] of 1440 nM and a TGI [14] of 2810 nM. It also gave a GI50 [15] of 1090 nM, a TGI [15] of 2400 nM and a GI50 [16] of 806 nM. The TGI [16] was 2100 nM, the TGI [17] was 2490 nM and the GI50 [18] was 1060 nM. The TGI [18] was 2460 nM, the GI50 [19] was 1160 nM and the TGI [19] was 2380 nM. It also gave a GI50 [20] of 873 nM, a TGI [20] of 2640 nM and a TGI [21] of 2150 nM. For the same compound, the GI50 [22] was 332 nM, the TGI [22] was 1190 nM and the TGI [23] was 2070 nM. The GI50 [24] was 681 nM, the TGI [24] was 2000 nM and the GI50 [25] was 1800 nM. For the same compound, the TGI [25] was 3300 nM, the GI50 [26] was 514 nM and the TGI [26] was 1770 nM. The GI50 [27] was 1290 nM, the TGI [27] was 2580 nM and the TGI [28] was 2260 nM. For the same compound, the GI50 [29] was 1330 nM, the TGI [29] was 3070 nM and the GI50 [30] was 1580 nM. The TGI [30] was 2970 nM, the GI50 [31] was 928 nM and the TGI [31] was 2290 nM. It also gave a GI50 [32] of 1670 nM, a TGI [32] of 3230 nM and a GI50 [33] of 1430 nM. The TGI [33] was 2780 nM, the GI50 [34] was 1750 nM and the TGI [34] was 3120 nM. It also gave a GI50 [35] of 1360 nM, a TGI [35] of 2710 nM and a GI50 [36] of 1290 nM. The TGI [36] was 2560 nM, the GI50 [37] was 657 nM and the TGI [37] was 1960 nM. It also gave a GI50 [38] of 1450 nM, a TGI [38] of 2810 nM and a GI50 [39] of 1090 nM. For the same compound, the TGI [39] was 2400 nM, the GI50 [40] was 388 nM and the TGI [40] was 1580 nM. The GI50 [41] was 1210 nM, the TGI [41] was 2470 nM and the GI50 [42] was 1710 nM. The TGI [42] was 3110 nM, the GI50 [43] was 758 nM and the TGI [43] was 2020 nM. It also gave a GI50 [44] of 1670 nM, a TGI [44] of 3040 nM and a GI50 [45] of 1200 nM. For the same compound, the TGI [45] was 2440 nM, the GI50 [46] was 1600 nM and the TGI [46] was 2950 nM. It also gave a GI50 [47] of 1620 nM, a TGI [47] of 3040 nM and a GI50 [48] of 481 nM. The TGI [48] was 1650 nM, the GI50 [49] was 1210 nM and the TGI [49] was 2450 nM. It also gave a GI50 [50] of 1180 nM, a TGI [50] of 2460 nM and a GI50 [51] of 565 nM. It also gave a TGI [51] of 2390 nM, a GI50 [52] of 577 nM and a TGI [52] of 1930 nM. It also gave a GI50 [53] of 1390 nM, a TGI [53] of 2730 nM and a TGI [54] of 2190 nM. The GI50 [55] was 1010 nM, the TGI [55] was 2170 nM and the GI50 [56] was 1310 nM. The TGI [56] was 2640 nM, the GI50 [57] was 909 nM and the TGI [57] was 2110 nM. It also gave a GI50 [58] of 1280 nM and a TGI [58] of 2550 nM.
